Tests used:
Experiment in all cases: relative viability (nuclei count vs DMSO), 5 days (fraction); higher = more cells survive
[1] = compound: CS(=O)(=O)N1CCN(Cc2cc3nc(-c4cccc5[nH]ncc45)nc(N4CCOCC4)c3s2)CC1 [Pictilisib] + CC(=O)Nc1cccc(-n2c(=O)n(C3CC3)c(=O)c3c(Nc4ccc(I)cc4F)n(C)c(=O)c(C)c32)c1 [Trametinib] (partner 0.02 µM)
In short: (§1)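 Lung cancer cell lines were pin-tool dosed in 1536-well plates on the day after seeding, with either a lone drug or a fixed anchor-drug dose plus five library-drug doses (not always all listed) in √10 steps. Nuclei were counted on 4× images after 5 days. Relative viability is the ratio of treated-well to vehicle-well nuclei counts, with each value a median of duplicate plates.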

[2] = compound: NC1(c2ccc(-c3nc4ccn5c(=O)[nH]nc5c4cc3-c3ccccc3)cc2)CCC1 [MK-2206] + Nc1nc2[nH]cc(CCc3ccc(C(=O)N[C@@H](CCC(=O)O)C(=O)O)cc3)c2c(=O)[nH]1 [Pemetrexed] (partner 0.2 µM)
In short: as §1

[3] = compound: CS(=O)(=O)N1CCN(Cc2cc3nc(-c4cccc5[nH]ncc45)nc(N4CCOCC4)c3s2)CC1 [Pictilisib] + Nc1nc2[nH]cc(CCc3ccc(C(=O)N[C@@H](CCC(=O)O)C(=O)O)cc3)c2c(=O)[nH]1 [Pemetrexed] (partner 0.2 µM)
In short: as §1

[4] = compound: CS(=O)(=O)N1CCN(Cc2cc3nc(-c4cccc5[nH]ncc45)nc(N4CCOCC4)c3s2)CC1 [Pictilisib] + CCNC(=O)c1noc(-c2cc(C(C)C)c(O)cc2O)c1-c1ccc(CN2CCOCC2)cc1 [Luminespib] (partner 0.01 µM)
In short: as §1

[5] = compound: CS(=O)(=O)N1CCN(Cc2cc3nc(-c4cccc5[nH]ncc45)nc(N4CCOCC4)c3s2)CC1 [Pictilisib] + CC(=O)c1c(C)c2cnc(Nc3ccc(N4CCNCC4)cn3)nc2n(C2CCCC2)c1=O [Palbociclib] (partner 0.5 µM)
In short: as §1

| Cell Line | relative viability ([1]; first compound 0.02 µM) | relative viability ([1]; first compound 0.06325 µM) | relative viability ([1]; first compound 0.6325 µM) | relative viability ([1]; first compound 2 µM) | relative viability ([2]; first compound 0.01 µM) | relative viability ([2]; first compound 0.03162 µM) | relative viability ([2]; first compound 0.3162 µM) | relative viability ([2]; first compound 1 µM) | relative viability ([3]; first compound 0.02 µM) | relative viability ([3]; first compound 0.06325 µM) | relative viability ([3]; first compound 0.6325 µM) | relative viability ([3]; first compound 2 µM) | relative viability ([4]; first compound 0.02 µM) | relative viability ([4]; first compound 0.06325 µM) | relative viability ([4]; first compound 0.6325 µM) | relative viability ([4]; first compound 2 µM) | relative viability ([5]; first compound 0.02 µM) | relative viability ([5]; first compound 0.06325 µM) | relative viability ([5]; first compound 0.6325 µM) | relative viability ([5]; first compound 2 µM) |
| --- | --- | --- | --- | --- | --- | --- | --- | --- | --- | --- | --- | --- | --- | --- | --- | --- | --- | --- | --- | --- |
| NCI-H358 | 0.132 | 0.141 | 0.122 | 0.104 | 0.169 | 0.154 | 0.186 | 0.162 | 0.172 | 0.165 | 0.161 | 0.133 | 0.382 | 0.348 | 0.161 | 0.146 | 0.116 | 0.165 | 0.121 | 0.115 |
| NCI-H441 | 0.462 | 0.521 | 0.258 | 0.195 | 0.256 | 0.238 | 0.255 | 0.249 | 0.279 | 0.276 | 0.256 | 0.202 | 0.307 | 0.236 | 0.269 | 0.221 | 0.216 | 0.192 | 0.152 | 0.148 |
| NCI-H460 | 0.157 | 0.215 | 0.0736 | 0.0266 | 0.0681 | 0.0647 | 0.0757 | 0.0577 | 0.0594 | 0.0727 | 0.0616 | 0.0599 | 0.0289 | 0.0281 | 0.0266 | 0.019 | 0.185 | 0.161 | 0.111 | 0.0339 |
| NCI-H520 | 0.57 | 0.64 | 0.215 | 0.14 | 0.612 | 0.68 | 0.351 | 0.183 | 0.613 | 0.624 | 0.268 | 0.148 | 0.212 | 0.221 | 0.223 | 0.217 | 0.217 | 0.234 | 0.144 | 0.125 |
| NCI-H522 | 0.884 | 0.721 | 0.572 | 0.43 | 1.04 | 0.964 | 0.887 | 1 | 1.08 | 1.1 | 0.796 | 0.481 | 1.01 | 0.939 | 0.894 | 0.788 | 1.07 | 0.785 | 0.833 | 0.692 |
| NCI-H647 | 0.554 | 0.464 | 0.307 | 0.126 | 0.201 | 0.165 | 0.144 | 0.134 | 0.172 | 0.175 | 0.143 | 0.141 | 0.124 | 0.151 | 0.265 | 0.185 | 0.365 | 0.419 | 0.254 | 0.144 |
| NCI-H650 | 1.03 | 0.969 | 0.8 | 0.5 | 0.979 | 0.913 | 0.818 | 1.02 | 1.02 | 0.887 | 0.701 | 0.525 | 0.759 | 0.809 | 0.802 | 0.483 | 0.323 | 0.308 | 0.271 | 0.265 |
| NCI-H661 | 0.532 | 0.589 | 0.469 | 0.356 | 0.986 | 0.91 | 0.876 | 0.877 | 0.956 | 0.982 | 0.9 | 0.711 | 0.969 | 0.938 | 0.953 | 0.813 | 0.446 | 0.384 | 0.347 | 0.299 |
| NCI-H838 | 0.431 | 0.453 | 0.374 | 0.246 | 0.245 | 0.227 | 0.255 | 0.201 | 0.24 | 0.251 | 0.314 | 0.184 | 0.332 | 0.262 | 0.241 | 0.258 | 0.191 | 0.206 | 0.174 | 0.124 |
| NCI-H1355 | 0.4 | 0.343 | 0.295 | 0.198 | 1.04 | 1.02 | 1.02 | 1.04 | 1.02 | 1.05 | 1.08 | 0.478 | 0.731 | 0.593 | 0.582 | 0.272 | 0.405 | 0.356 | 0.293 | 0.217 |
| NCI-H1395 | 1.03 | 1.03 | 0.866 | 0.477 | 0.807 | 0.869 | 0.79 | 0.812 | 1.01 | 0.905 | 0.745 | 0.373 | 0.704 | 0.838 | 0.748 | 0.534 | 0.657 | 0.696 | 0.515 | 0.412 |
| NCI-H1437 | 0.472 | 0.418 | 0.289 | 0.194 | 0.321 | 0.325 | 0.334 | 0.258 | 0.317 | 0.318 | 0.274 | 0.215 | 1.14 | 1.16 | 1.25 | 1.19 | 0.309 | 0.337 | 0.401 | 0.216 |
| NCI-H1650 | 0.595 | 0.662 | 0.506 | 0.382 | 0.3 | 0.379 | 0.319 | 0.347 | 0.325 | 0.361 | 0.358 | 0.302 | 0.224 | 0.175 | 0.201 | 0.207 | 0.381 | 0.334 | 0.223 | 0.193 |
| NCI-H1651 | 0.753 | 0.825 | 0.7 | 0.656 | 0.562 | 0.575 | 0.621 | 0.513 | 0.516 | 0.591 | 0.519 | 0.38 | 0.841 | 0.65 | 0.889 | 0.473 | 0.518 | 0.499 | 0.496 | 0.378 |
| NCI-H1666 | 0.802 | 0.892 | 0.622 | 0.575 | 0.793 | 0.774 | 1.03 | 0.787 | 0.947 | 0.846 | 0.737 | 0.725 | 1.02 | 1.07 | 0.937 | 0.651 | 0.606 | 0.713 | 0.668 | 0.607 |
